Experimental data from publication PMC8235783, “Radiopharmaceutical Formulation and Preclinical Testing of ^68Ga-Labeled DOTA-MGS5 for the Regulatory Approval of a First Exploratory Clinical Trial” (Pharmaceuticals, 2021).
One block for each molecule: values may come before it.

What was measured:
[1] = target: T1, CCK2R on A431-CCK2R cells (human CCK2R) (Homo sapiens, UniProt P32239); experiment: Receptor affinity competition assay against [125I][3-iodo-Tyr12,Leu15]gastrin-I; format: binding; settings: competition against [125I][3-iodo-Tyr12,Leu15]gastrin-I on A431-CCK2R cells, 1 h at RT; n = 3 (Ga-DOTA-MGS5 n = 1)
T1 construct: expressed in transfected cells; host or cells: A431 human epidermoid carcinoma cells, stably transfected (provided by Dr. Luigi Aloj)
T1 sequence (P32239 1-447): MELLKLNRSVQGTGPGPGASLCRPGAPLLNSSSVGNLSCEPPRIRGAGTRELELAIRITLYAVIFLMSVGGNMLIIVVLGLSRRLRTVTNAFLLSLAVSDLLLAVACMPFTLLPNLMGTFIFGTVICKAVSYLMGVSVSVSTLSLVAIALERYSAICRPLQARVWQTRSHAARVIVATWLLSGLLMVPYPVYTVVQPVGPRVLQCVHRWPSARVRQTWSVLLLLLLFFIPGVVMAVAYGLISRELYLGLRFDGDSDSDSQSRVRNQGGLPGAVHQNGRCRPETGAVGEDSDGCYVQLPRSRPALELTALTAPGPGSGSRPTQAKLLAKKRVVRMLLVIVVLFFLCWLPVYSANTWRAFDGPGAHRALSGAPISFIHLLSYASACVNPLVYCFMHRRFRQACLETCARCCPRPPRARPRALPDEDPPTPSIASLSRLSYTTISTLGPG
Description: A431-CCK2R and A431-mock cells were cultured in Dulbecco’s Modified Eagle Medium (DMEM) and AR42J cells were cultured in RPMI-1640 medium, both supplemented with 10% (v/v) fetal bovine serum and 5 mL of a 100x penicillin–streptomycin–glutamine mixture at 37 °C in a humidified 95% air/5% CO2 atmosphere. Media and supplements were purchased from Invitrogen Corporation (Lofer, Austria).
Binding assays on A431-CCK2R cells were carried out as previously described [37]. The cells were incubated with increasing concentrations of the peptide conjugates and [^125I][3-iodo-Tyr^12,Leu^15]gastrin-I (~20,000 cpm) for 1 h at RT. Half-maximum inhibitory concentration (IC50) values were calculated after nonlinear regression using Origin software (Microcal Origin 6.1, Northampton, MA, USA).

[2] = 14-day extended single-dose intravenous toxicity study in rats; format: in vivo
Description: In the preclinical evaluation of the safety profile of DOTA-MGS5, a targeted approach was followed for the 14-day extended single-dose toxicity study conducted in male Wistar rats. Instead of performing the study in animals of both sexes at a single dose level, the non-clinical evaluation was confined to male animals, including, however, three different dose levels based on mg/kg scaling and body surface scaling (applying a factor of 6.2). Considering a maximum dose of 50 µg administered to patients and an exposure margin of 100-fold the clinical dose, a dose level of 0.5 mg/kg body weight was calculated for the study and used as medium dose. Two additional dose levels of 0.1 mg/kg body weight and 2.5 mg/kg body weight were selected to allow a more accurate evaluation of the safety profile. Based on the preclinical biodistribution studies, the stomach, pancreas, and kidneys were identified as the main target organs. In addition to these organs, the liver and colon as potential additional routes of excretion, as well as spleen and sternum (including bone marrow), were also included in the histopathological evaluation.
A NOAEL (no observed adverse effect level) of 2.5 mg/kg body weight was established from the study for the single administration of DOTA-MGS5. When considering body surface scaling from rats to humans, the NOAEL of 2.5 mg/kg body weight translates to a HED (human equivalent dose) of 0.4 mg/kg body weight. By applying a safety factor of 100, a maximum dose of 4 µg/kg body weight was established for human subjects receiving the initial clinical dose. For the first PET/CT examinations with ^68Ga-DOTA-MGS5, a maximum dose of 50 µg could be established as clinical dose, which remains well below the maximum dose of 4 µg/kg body weight.
The safety of the intravenous injection was tested for unlabeled DOTA-MGS5 in a GLP-compliant 14-day extended single-dose intravenous toxicity study in rats using the intravenous route of administration. The study was designed following a targeted microdose approach based on the ICH guideline M3 (R2) on non-clinical safety studies for the conduct of human clinical trials and marketing authorization for pharmaceuticals (EMA/CPMP/ICH/286/1995, December 2009), as well as the draft guideline on the non-clinical requirements for radiopharmaceuticals (EMA/CHMP/SWP/686140/2018, 15 November 2018). The study was conducted in a GLP-compliant laboratory (BSL BIOSERVICE Scientific Laboratories Munich GmbH, Planegg/Munich, Germany) using 60 6–7-week-old male healthy Wistar rats (Crl: WI(Han), Full Barrier, Charles River, Sulzfeld, Germany). […] Body weight and food consumption was determined on a weekly basis. […]

[3] = in vivo; settings: female, BALB/c, mouse, iv, 20 pmol peptide
Description: The biodistribution profile of ^68Ga-DOTA-MGS5 in female BALB/c mice was evaluated for the time points of 5, 20, 60, and 90 min post injection (p.i.).
Biodistribution studies evaluating the pharmacokinetics and tissue distribution of ^68Ga-DOTA-MGS5 were performed in 6-week-old female BALB/c mice (n = 12). Groups of three mice for each time point were injected intravenously via a lateral tail vein with ~1 MBq of ^68Ga-DOTA-MGS5 corresponding to 20 pmol peptide. The mice were euthanized by cervical dislocation 5, 20, 60, and 90 min after injection and different tissues (blood, lung, heart, muscle, spleen, intestine, liver, kidneys, pancreas, stomach, and femur) were removed, weighed, and their radioactivity measured in a gamma-counter together with a standard and the residual body. Results were expressed as percentage of injected activity per organ (% IA) and per gram tissue (% IA/g).

[4] = injected dose of 150 MBq; cited from earlier work
Description: When extrapolating the biodistribution data from mice to humans, a whole-body effective dose of 0.0102 mSv/MBq for men and of 0.0131 mSv/MBq for women was calculated. In Table 4, a summary of the calculated organ absorbed doses is given. At a maximum injected activity of 185 MBq, a whole-body radiation dose of 1.9–2.4 mSv can be anticipated for a PET examination with ^68Ga-DOTA-MGS5. The radiation exposure from the radioactive substance is in a similar range of a low-dose CT scan of 3–6 mSv. Due to the potential hazards of ionizing radiation, the dose of the PET/CT scan should be kept a ...

[5] = target: T2, AR42J cells with physiological expression of rat CCK2R (Rattus norvegicus, UniProt P30553); settings: 4 h after incubation; cited from earlier work
T2 construct: In AR42J cells with physiological expression of rat CCK2R; host or cells: AR42J rat pancreatic tumor cells
T2 sequence (P30553 1-452): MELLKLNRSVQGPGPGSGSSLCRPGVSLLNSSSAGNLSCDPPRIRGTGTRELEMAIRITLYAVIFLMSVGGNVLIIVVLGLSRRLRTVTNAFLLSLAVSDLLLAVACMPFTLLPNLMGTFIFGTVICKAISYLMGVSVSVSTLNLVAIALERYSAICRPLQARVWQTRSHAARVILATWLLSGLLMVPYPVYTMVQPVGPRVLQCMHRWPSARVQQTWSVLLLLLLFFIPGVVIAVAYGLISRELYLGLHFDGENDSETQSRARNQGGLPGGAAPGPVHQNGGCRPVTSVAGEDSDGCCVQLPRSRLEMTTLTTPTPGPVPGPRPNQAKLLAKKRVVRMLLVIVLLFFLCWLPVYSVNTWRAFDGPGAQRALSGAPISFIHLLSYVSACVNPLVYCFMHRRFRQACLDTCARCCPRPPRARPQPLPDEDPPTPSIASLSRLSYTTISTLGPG

[6] = target: T3, A431-CCK2R cells (human CCK2R) (Homo sapiens, UniProt P32239); settings: 1 h incubation; cited from earlier work
T3 construct: expressed in transfected cells; host or cells: A431 human epidermoid carcinoma cells, stably transfected (provided by Dr. Luigi Aloj)
T3 sequence (P32239 1-447): T1 sequence (P32239 1-447)
Description: For the time point of 1 h incubation, a cell internalization of ~20% was reported for ^177Lu-DOTA-PP-F11N in A431-CCK2R cells.

[7] = total radioactivity, uptake in blood
[8] = total radioactivity, uptake in femur
[9] = total radioactivity, uptake in heart
[10] = total radioactivity, uptake in intestine
[11] = total radioactivity, uptake in kidneys
[12] = total radioactivity, uptake in liver
[13] = total radioactivity, uptake in lung
[14] = total radioactivity, uptake in muscle
[15] = total radioactivity, uptake in pancreas
[16] = total radioactivity, uptake in spleen
[17] = total radioactivity, uptake in stomach

Molecule: CCCC[C@@H](C(=O)N[C@@H](CC(=O)O)C(=O)N[C@@H](Cc1cccc2ccccc12)C(N)=O)N(C)C(=O)[C@H](Cc1c[nH]c2ccccc12)NC(=O)CNC(=O)[C@H](Cc1ccc(O)cc1)NC(=O)[C@H](C)NC(=O)[C@@H](CCC(=O)O)NC(=O)CN1CCN(CC(=O)O)CCN(CC(=O)O)CCN(CC(=O)O)CC1 [DOTA-MGS5, DOTA-DGlu-Ala-Tyr-Gly-Trp-(N-Me)Nle-Asp-1-Nal-NH2]
IC50 [1]: 0.5 ± 0.1 nM
treatment-related mortality or clinical symptoms ([2]; i.v. 0.1, 0.5 and 2.5 mg/kg BW, male Wistar rats, until end of observation periods (2 and 14 days)): no treatment-related mortality or clinical symptoms occurred
HED (human equivalent dose) ([2]; rat, in vivo): 0.4 mg/kg body weight
maximum dose for human subjects receiving the initial clinical dose ([2]; rat, in vivo): 4 µg/kg body weight

Molecule: CCCC[C@@H](C(=O)N[C@@H](CC(=O)O)C(=O)N[C@@H](Cc1cccc2ccccc12)C(N)=O)N(C)C(=O)[C@H](Cc1c[nH]c2ccccc12)NC(=O)CNC(=O)[C@H](Cc1ccc(O)cc1)NC(=O)[C@H](C)NC(=O)[C@@H](CCC(=O)O)NC(=O)CN1CCN(CC(=O)O)CCN(CC(=O)O)CCN(CC(=O)O)CC1 [^68Ga-DOTA-MGS5, metal not drawn]
uptake in blood ([3]; 1.5 h): 0.94 ± 0.08 % IA/g
tissue uptake dose at 5 min ([3]; total radioactivity): 81.8 ± 2.5 %ID
tissue uptake dose at 1.5 h ([3]; total radioactivity): 11.4 ± 1.7 %ID
tissue uptake at 5 min [3, 7]: 17.6 ± 3.01 %ID/g
tissue uptake at 20 min [3, 7]: 6.76 ± 1.17 %ID/g
tissue uptake at 1 h [3, 7]: 1.99 ± 0.22 %ID/g
tissue uptake at 1.5 h [3, 7]: 0.9 ± 0.1 %ID/g
tissue uptake at 5 min [3, 8]: 2.77 ± 0.34 %ID/g
tissue uptake at 20 min [3, 8]: 1.75 ± 0.93 %ID/g
tissue uptake at 1 h [3, 8]: 0.62 ± 0.09 %ID/g
tissue uptake at 1.5 h [3, 8]: 0.55 ± 0.09 %ID/g
tissue uptake at 5 min [3, 9]: 5.11 ± 0.07 %ID/g
tissue uptake at 20 min [3, 9]: 2.24 ± 0.57 %ID/g
tissue uptake at 1 h [3, 9]: 0.7 ± 0.16 %ID/g
tissue uptake at 1.5 h [3, 9]: 0.35 ± 0.02 %ID/g
tissue uptake at 5 min [3, 10]: 2.42 ± 0.21 %ID/g
tissue uptake at 20 min [3, 10]: 1.22 ± 0.25 %ID/g
tissue uptake at 1 h [3, 10]: 0.75 ± 0.17 %ID/g
tissue uptake at 1.5 h [3, 10]: 0.62 ± 0.08 %ID/g
tissue uptake at 5 min [3, 11]: 17.6 ± 2.79 %ID/g
tissue uptake at 20 min [3, 11]: 8.41 ± 1.33 %ID/g
tissue uptake at 1 h [3, 11]: 5.11 ± 0.33 %ID/g
tissue uptake at 1.5 h [3, 11]: 4.6 ± 0.32 %ID/g
tissue uptake at 5 min [3, 12]: 5.02 ± 0.06 %ID/g
tissue uptake at 20 min [3, 12]: 2.28 ± 0.31 %ID/g
tissue uptake at 1 h [3, 12]: 1.21 ± 0.12 %ID/g
tissue uptake at 1.5 h [3, 12]: 1 ± 0.06 %ID/g
tissue uptake at 5 min [3, 13]: 8.51 ± 2.33 %ID/g
tissue uptake at 20 min [3, 13]: 3.78 ± 0.53 %ID/g
tissue uptake at 1 h [3, 13]: 1.1 ± 0.11 %ID/g
tissue uptake at 1.5 h [3, 13]: 0.59 ± 0.1 %ID/g
tissue uptake at 5 min [3, 14]: 2.89 ± 0.18 %ID/g
tissue uptake at 20 min [3, 14]: 1.03 ± 0.21 %ID/g
tissue uptake at 1 h [3, 14]: 0.49 ± 0.19 %ID/g
tissue uptake at 1.5 h [3, 14]: 0.18 ± 0.04 %ID/g
tissue uptake at 5 min [3, 15]: 4.03 ± 0.19 %ID/g
tissue uptake at 20 min [3, 15]: 2.17 ± 0.16 %ID/g
tissue uptake at 1 h [3, 15]: 1.5 ± 0.38 %ID/g
tissue uptake at 1.5 h [3, 15]: 1.42 ± 0.3 %ID/g
tissue uptake at 5 min [3, 16]: 3.53 ± 0.43 %ID/g
tissue uptake at 20 min [3, 16]: 1.7 ± 0.38 %ID/g
tissue uptake at 1 h [3, 16]: 0.71 ± 0.05 %ID/g
tissue uptake at 1.5 h [3, 16]: 0.69 ± 0.09 %ID/g
tissue uptake at 5 min [3, 17]: 6.63 ± 0.23 %ID/g
tissue uptake at 20 min [3, 17]: 4.09 ± 0.98 %ID/g
tissue uptake at 1 h [3, 17]: 4.63 ± 0.65 %ID/g
tissue uptake at 1.5 h [3, 17]: 4.12 ± 0.3 %ID/g
maximum dose established as clinical dose ([2]; rat, in vivo): 50 µg

Molecule: O=C([O-])CN(CCN(CC(=O)[O-])Cc1cc(CCC(=O)NCCCCCC(=O)NCCCC[C@H](NC(=O)N[C@@H](CCC(=O)O)C(=O)O)C(=O)O)ccc1[O-])Cc1cc(CCC(=O)O)ccc1[O-].[68Ga+3].[OH3+] [^68Ga-PSMA-11]
effective radiation dose [4]: 2.4 mSv

Molecule: DOTA-(DGlu)6-Ala-Tyr-Gly-Trp-Met-Asp-Phe-NH2 [^111In-CP04, minigastrin analog radiolabeled with indium-111, in clinical studies]
cell uptake [5]: 14.4 ± 0.8%

Molecule: DOTA-(DGlu)6-Ala-Tyr-Gly-Trp-Nle-Asp-Phe-NH2 [^177Lu-DOTA-PP-F11N, minigastrin analog radiolabeled with lutetium-177, in clinical studies]
cell internalization [6]: ~ 20%

IC50 [1]: 0.5 ± 0.1 nM
Molecule: Ga-DOTA-MGS5: DOTA-MGS5 labeled with the stable isotope of gallium, reference standard
